# From patent US20230138400A1, “METHODS AND PHARMACEUTICAL COMPOSITIONS FOR REPROGRAMING IMMUNE ENVIRONMENT IN A SUBJECT IN NEED THEREOF” (INSERM (INSTITUT NATIONAL DE LA SANTE ET DE LA RECHERCHE …, priority 2016, published 2023)
# Columns and labels:
# E0771 tumor = experiment: Infiltration of immune cells inside E0771 tumor, flow cytometry; format: in vivo, mouse; conditions: 0.37 μg/kg DDA, day 15 post treatment
# Text: FIGS. 5A-D. Infiltration of immune cells inside E0771 tumor. (A-D) These bar graphs represent the ratio between (A) Th1 (CD4+ Tbet+) and Treg (CD4+ Foxp3+), (B) CTL cells (CD8+ Granzym B+) on No CTL cells (CD8+ Granzym b−), (C) macrophage type M1 (CD14+ CCR7+ IFNg+) and type M2 (CD14+ CD206+ IL10+) (D) dendritic cells (CD11c+) and myeloid derived suppressive cells (MDSC: CD11b+CD11clow, LY6C+ly6Gint) infiltrated inside the tumor. The tumors were removed at day 15 post treatment with DDA at 0.37 μg/kg (b) or with the solvent vehicle (control) (a). To observe the cytotoxic CD8 T cells, the tumor suspension was prealably stimulated 2 h in vitro with a cocktail of PMA (50 ng/ml), ionomycine (500 ng/ml) and golgistop (concentration from manufacture BD Pharmagen), then the cells were stained with specific antibodies.
# Tumor dissociation: Freshly excised tumors were trimmed of skin, fat, and necrotic tissue and minced in cold Hanks' medium. The minced tumor pieces were placed in an enzyme solution consisting of collagenase type D at 1 mg/ml and DNase type 1 at 20 μg/ml in Hanks' medium at 37° C. After 30 min of dissociation, the cell suspension was collected, washed with Hank's medium, and then suspended in PBS 1×, 0.5% BSA, 0.02% azide and […] EDTA (Facs medium).
# Analysis of immune cells by flow cytometry. Immune cells from the tumors were stained with the indicated fluorescent-labelled antibodies: anti mouse α-CD4, α-CD8, α-T-bet, α-Foxp3, α-granzyme B, α-PD-1, α-CD44, α-Ly6C, α-Ly6G, α-CD11b, α-CD11c, α-CD206, α-CD86, α-IL10, α-IL-6, α-IL-4 purchased from eBioscience or Biolegend. Intracellular staining for T-bet, Foxp3, IFNg, Granzyme B, IL-10, IL-4 and IL-6 was performed according the manufacturer's protocol from Biolegend. To observe the cytotoxic CD8 T cells, the tumor suspension was prealably stimulated 2 h in vitro with a cocktail of PMA (50 ng/ml), ionomycine (500 ng/ml) and golgistop (concentration from manufacture BD Pharmingen), then the cells were stained with specific antibodies. To set the gates, flow cytometry dot plots were based on comparison with isotype control. Flow cytometry measurements of single-cells suspension were performed on a Fortessa 20X (BD pharmingen) and data were analyzed using FlowJo software.
# B16F10 cells = experiment: Multivesicular bodies and exosome secretion of B16F10 cells treated with DDA; format: cell-based, mouse
# [1] = system: human and murine mammary tumor cells; experiment: Exosome secretion of mammary tumor cells treated with DDA; format: cell-based; conditions: data not shown
# [2] = system: naive CD4 T cells from the spleen of WT or LXRαβKO mice; experiment: Polarization of naive CD4 T cells from WT or LXRαβKO mice in presence of DDA; format: cell-based, mouse
# Procedure: FIGS. 9A-B. Sorted naive CD4 T cells were isolated from the spleen of WT or LXRαβKO mice (collaboration with Hervé Guillou, INRA, Toulouse) and activated in the indicated Th1 or Treg polarizing conditions. These cells were cultured in the presence of increasing concentrations of DDA. After 96 hours, the percentage of (A) Th1: CD4+Tbet+IFNg+ and (B) Treg: CD4+Foxp3+IL10+ cells was measured by flow cytometry and expressed relative to the control.
# FIG. 10. Sorted naive CD4 T cells were isolated from the spleen of WT or LXRαβKO mice and activated in Th2 polarizing conditions. These cells were cultured in the presence of increasing concentrations of DDA. After 96 hours, the percentage of Th2: CD4+GATA3+IL4+ cells was measured by flow cytometry and expressed relative to the control.
# tumor side lymph nodes = experiment: T cells in tumor side lymph nodes after DDA, flow cytometry; format: in vivo, mouse
# Procedure: FIGS. 20A-C. The priming of T cells inside tumor side lymph node is dependent of the LXR expressed by tumor cells. Animals were grafted with tumor cells and treated as described in FIG. 2. At the end of the experiments, tumor side lymph nodes (mesenteric, auxiliary and brachial) were collected, dissociated and stimulated in vitro with 50 ng/ml of PMA (Sigma), 500 ng/ml Ionomycin (Sigma) and 1/1000 of golgi stop (ebiosicence) during 3 h at 370 to analyze by flow cytometry the phenotype of T cells. (A-C) The dots in the graphs represent the relative number of (A) T regulatory cells (CD4+ Foxp3+), (B) Th1 CD4+ cells (CD4+ T-bet+) and (C) cytotoxic CD8+ T cells (CD8+ Granzym B+ IFNγ+). The vehicle was normalized to 1. Graphs are representative of three independent experiments.
# Organ dissociation and flow cytometry. The tumor-side lymph nodes were dissociated manually while for the tumor, gentlemac technology (Miltenyi) was used. Then, the suspension of tumor cells or lymph node were stimulated with 50 ng/ml of PMA (Sigma), 500 ng/ml Ionomycin (Sigma) and 1/1000 of golgi stop (ebiosicence) during 3 h at 37° C. After that, the single cell suspension were stained with the indicated fluorescent-labelled antibodies: anti mouse α-CD4, α-CD8, α-T-bet, α-Foxp3, α-granzyme B, α-PD-1, α-CD44, α-Ly6C, α-Ly6G, α-CD11b, α-CD11c, α-CD206 IL10, α-CD86 as well as live/dead stain purchased from eBioscience or Biolegend. Intracellular staining for T-bet, Foxp3, and Granzyme B, was performed according the manufacturer's protocol from Biolegend. To set the gates, flow cytometry dot plots were based on comparison with isotype control. Flow cytometry measurements of single-cells suspension were performed on a Fortessa 20X (BD pharmingen) and data were analyzed using FlowJo software.
# E0771 tumors = experiment: Immune cells infiltrated into E0771 tumors (wild type, sh control, sh LXR) after DDA, flow cytometry; format: in vivo, mouse
# [3] = system: tumor cells implanted in mice; conditions: de Medina et al., Nat Commun. 2013; cited from earlier work
structure (smiles),measurement,setting,value
"CC(C)CCCC(C)[C@H]1CCC2C3C[C@@H](NCCc4cnc[nH]4)[C@@]4(O)C[C@@H](O)CC[C@]4(C)C3CC[C@@]21C (stereo partly shown) [DDA, 5a-hydroxy-6b-[2-(1H-imidazol-4-yl)ethylamino]cholestan-3b-ol]",infiltration into the tumor of inactivated CD8 (No CTL),E0771 tumor,decreases
same,infiltration into the tumor of macrophage type M2,E0771 tumor,decreases
same,infiltration into the tumor of myeloid derived suppressive cells (MDSC),E0771 tumor,decreases
same,infiltration into the tumor of regulatory CD4 Treg cells,E0771 tumor,decreases
same,infiltration of CD4 Th1 cells inside the tumor,E0771 tumor,increases
same,infiltration of activated CD8 (CTL) inside the tumor,E0771 tumor,increases
same,infiltration of dendritic cells (DC: CD11c+) inside the tumor,E0771 tumor,increases
same,infiltration of macrophage type M1 inside the tumor,E0771 tumor,increases
same,production of exosome secreted into the media,B16F10 cells; data not shown,1.5 to 2 fold
same,amount of multivesicular bodies (MVB),B16F10 cells; electronic microscopy,stimulates
same,production of exosome secreted into the media,[1],also observed
same,DDA effect on Th1 differentiation,[2]; LXRαβKO mice,abrogated
same,DDA effect on Treg differentiation,[2]; LXRαβKO mice,abrogated
same,differentiation of Th0 into Th1,"[2]; WT mice, Th1 polarizing conditions, 96 h (FIG. 9)",increases
same,differentiation of Th0 into Treg,"[2]; WT mice, Treg polarizing conditions, 96 h (FIG. 9)",decreases
same,Th2 differentiation,"[2]; WT or LXRαβKO mice, Th2 polarizing conditions, 96 h (FIG. 10)",no impact
same,number of Th1CD4+ cells infiltrated into tumor side lymph nodes,tumor side lymph nodes; 0.37 μg/kg DDA (FIG. 20),increases
same,number of Treg cells infiltrated into tumor side lymph nodes,tumor side lymph nodes; 0.37 μg/kg DDA (FIG. 20),decreases
same,number of cytotoxic CD8 T cells infiltrated into tumor side lymph nodes,tumor side lymph nodes; 0.37 μg/kg DDA (FIG. 20),increases
same,LXRβ dependence of priming of T cells inside tumor side lymph nodes,tumor side lymph nodes; shLXRβ vs LXRβ expressing tumors (FIG. 20),dependent of the LXRβ
same,number of macrophages M2 infiltrated into the tumors,E0771 tumors; 0.37 μg/kg DDA (FIG. 18),decreases
same,number of MDSC infiltrated into the tumor,E0771 tumors; 0.37 μg/kg DDA (FIG. 19),decreases
same,ratio of dendritic cells CD11+ CD8α+ versus MDSC,E0771 tumors; 0.37 μg/kg DDA (FIG. 19),increases
same,LXRβ dependence of effect on macrophages M1,E0771 tumors; shLXRβ vs LXRβ expressing tumors (FIG. 18),dependent of the LXRβ
same,effects on MDSC and dendritic cells/MDSC ratio,E0771 tumors; tumors knocked-down for the LXRβ (FIG. 19),abolished
same,animal survival,[3],improves animal survival
same,growth of tumor cells implanted in mice,[3],control the growth
same,infiltration of CD3+ T lymphocytes and CD11c+ dendritic cells,[3],increased infiltration
